Values quoted from earlier work as cited in patent US11236258B2, “Aqueous based dust control compositions and methods” (Trican Well Service Ltd, priority 2018, dated 2022).

How the values were obtained:
[1] = within 14 days

Compound	solubility in water	measured solubility in water	biodegradation, degradation [1]
C[N+](C)(C)CCOP(=O)(O)OCC(O)CO (stereo not shown) [GPC, glycerophosphocholine]	4040 µg/mL		
C[N+](C)(C)CCO.[Cl-] [Choline chloride, choline chloride]		650000 µg/mL	93%
C[N+](C)(C)CCO [CHO, choline]	3610 µg/mL		
